Measured values published in ChEMBL document CHEMBL1201862, “PubChem BioAssay data set” (2004).
The source made the active and inactive calls.

What was measured:
[1] = test system: Streptococcus sp. 'group A'; assay: Streptococcus pyogenes SK(-)GAS viability under kanamycin – luminescence, BacTiterGlo, confirmation, counter-screen for streptokinase expression inhibitor project, dose response (AID 1900); assay type: functional, organism-based
[2] = HPDE-C7 pancreatic duct cell viability loss – fluorescence, HTS (AID 430); assay type: functional, cell-based; settings: Homo sapiens
[3] = microbe, parasite or virus in culture; assay type: functional; settings: Mycobacterium tuberculosis
[4] = viability loss of HPDE-C7K cells – cell-based, fluorescence, HTS, primary screen (AID 431); assay type: functional; settings: Homo sapiens
[5] = viability of PTEN-deleted HCT116 cells – cell-based, HCT116 PTEN knockout, dose response (AID 1047); assay type: functional;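 note: HCT116 colon tumor cells with PTEN knocked out; cells exposed to compound for 60 hours before readout; potency for loss of cell viability measured by luminescence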
[6] = viability of HCT116 lacking mutant beta-catenin – cell-based, human colon tumor, dose response (AID 1045); assay type: functional;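 note: HCT116 colon tumor cells with beta catenin knocked out; cells exposed to compound for 60 hours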
[7] = target: T1, Sphingosine 1-phosphate receptor 4 (Homo sapiens, UniProt O95977); assay: Fluorescence dose response cell-based high throughput screening assay for antagonists of the Sphingosine 1-Phosphate Receptor 4 (S1P4). [Related pubchem assays: 1524 (Confirmation in triplicates.), 1510 (Primary screen.)]; assay type: functional
T1 sequence (O95977 whole entry): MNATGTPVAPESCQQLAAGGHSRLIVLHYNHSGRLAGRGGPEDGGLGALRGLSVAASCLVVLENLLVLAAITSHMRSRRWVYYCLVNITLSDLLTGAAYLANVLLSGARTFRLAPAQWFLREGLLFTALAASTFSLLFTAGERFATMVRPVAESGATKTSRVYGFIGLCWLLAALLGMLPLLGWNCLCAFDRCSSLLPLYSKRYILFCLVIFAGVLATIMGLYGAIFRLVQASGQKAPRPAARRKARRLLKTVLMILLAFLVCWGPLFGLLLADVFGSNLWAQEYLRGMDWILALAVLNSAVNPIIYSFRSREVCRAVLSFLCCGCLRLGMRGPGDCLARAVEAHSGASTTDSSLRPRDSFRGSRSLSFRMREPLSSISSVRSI

[8] = target: Sphingosine 1-phosphate receptor 1 (Homo sapiens, UniProt P21453); assay type: functional;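 note: Tango beta-arrestin reporter U2OS cells stimulated with S1P near its EC80; inhibitor potency meaning antagonism of receptor activation by the natural agonist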
Streptococcus = assay: GAS UMAA2166 growth inhibition – luminescence, BacTiterGlo, counter-screen for streptokinase expression inhibitor project, dose response (AID 1915); assay type: functional, organism-based;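 note: potency for reduction of bacterial viability or growth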
[9] = THP-1 cell cytotoxicity, dose response, cytotoxicity control for non-replicating M. tuberculosis project (AID 489025); assay type: functional
[10] = HepG2 cell cytotoxicity, dose response, cytotoxicity control for non-replicating M. tuberculosis project (AID 489018); assay type: functional; settings: Mycobacterium tuberculosis
[11] = Vero E6 cell cytotoxicity, dose response, cytotoxicity control for non-replicating M. tuberculosis project, secondary assay (AID 492998); assay type: functional, VeroE6; settings: Vero C1008
[12] = target: T2, Heat shock factor protein 1 (Mus musculus, UniProt P38532); assay: enhancement of HSF1-driven luciferase signal – cell-based, NIH3T3, luminescence, dose retest, confirmation (AID 435004); assay type: functional;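 note: stress induced by proteasome inhibitor MG132 added 30 min after compound; luciferase reporter driven by HSF1 response element in NIH3T3 cells; actives raise luminescence as potentiators of the MG132 stress response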
T2 sequence (P38532 whole entry): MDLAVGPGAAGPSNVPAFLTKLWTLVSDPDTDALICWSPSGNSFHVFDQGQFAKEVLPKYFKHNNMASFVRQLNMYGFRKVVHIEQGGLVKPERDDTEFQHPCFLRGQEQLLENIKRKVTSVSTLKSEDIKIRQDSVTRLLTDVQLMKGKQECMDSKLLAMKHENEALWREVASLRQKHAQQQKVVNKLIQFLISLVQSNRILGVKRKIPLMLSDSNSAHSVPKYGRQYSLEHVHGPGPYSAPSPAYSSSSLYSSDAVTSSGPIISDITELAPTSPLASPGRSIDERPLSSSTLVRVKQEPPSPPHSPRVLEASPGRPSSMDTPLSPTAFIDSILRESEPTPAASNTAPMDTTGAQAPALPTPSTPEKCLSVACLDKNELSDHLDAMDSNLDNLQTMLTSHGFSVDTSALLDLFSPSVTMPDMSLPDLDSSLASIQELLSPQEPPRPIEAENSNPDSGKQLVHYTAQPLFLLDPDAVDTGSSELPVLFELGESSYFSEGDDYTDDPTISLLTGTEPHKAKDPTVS

cells = assay type: functional
[13] = reduction of Shn3 3'UTR-driven luciferase in osteoblasts – cell-based, Clone20 osteoblasts, firefly luciferase, cherry-picked, dose response (AID 624132); assay type: functional;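 note: firefly luciferase luminescence from reporter carrying the Shn3 3'UTR in osteoblasts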
[14] = loss of viability in HepG2 cells – cell-based, CellTiter-Glo, cherry-picked, cytotoxicity control for Shn3 inhibitor project, dose response (AID 624134); assay type: functional
[15] = mitochondrial function rescue without frataxin homolog – Friedreich's ataxia, plus single-dose screen, dose response (AID 1465); assay type: functional;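 note: yeast depleted of Yfh1p frataxin homolog grown on glycerol needing respiration; WST-1 tetrazolium dye reduction as measure of cellular dehydrogenase metabolic activity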
[16] = target: Serine/threonine-protein phosphatase PP1-alpha catalytic subunit (Homo sapiens, UniProt P62136); assay: inhibition of protein phosphatase 1 activity – biochemical, fluorescence, dose response (AID 2403);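 note: phosphatase turnover of OMFP into fluorescent 3-O-methylfluorescein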
[17] = target: Serine/threonine-protein phosphatase (Homo sapiens, UniProt Q9BPW0); assay: Counterscreen for inhibitors of PP1: fluorescence-based biochemical high throughput dose response assay to identify inhibitors of Protein Phosphatase 5 (PP5). [Related pubchem assays: 2034 (Summary (PP5 inhibitors)), 1987 (PP5 inhibitors in singlate), 2235 (PP1 inhibitors in singlate)]
Vasopressin V1a receptor = Vasopressin V1a receptor (Homo sapiens, UniProt P37288); assay: Counterscreen for Oxytocin Receptor (OXTR) agonists: Fluorescence-based cell-based high throughput dose response assay to identify agonists of the vasopressin 1 receptor (V1R). [Related pubchem assays: 2435 (Primary screen (OXTR agonists in singlicate)), 434991 (Counterscreen (V1R agonists in triplicate)), 2482 (Summary (OXTR agonists)) …; assay type: functional
Oxytocin receptor = Oxytocin receptor (Homo sapiens, UniProt P30559); assay: Fluorescence-based cell-based high throughput dose response assay for agonists of the Oxytocin Receptor (OXTR). [Related pubchem assays: 2435 (Primary screen (OXTR agonists in singlicate)), 434991 (Counterscreen (V1R agonists in triplicate)), 2482 (Summary (OXTR agonists)), 434963 (Confirmation screen (OXTR agonists in triplicate))]; assay type: functional
Cytochrome P450 2D6 [18] = target: T3, Cytochrome P450 2D6 (Homo sapiens, UniProt P10635); assay: qHTS Assay for Inhibitors and Substrates of Cytochrome P450 2D6. [Related pubchem assays: 410 ]; assay type: ADME; settings: read-out: Potency
Cytochrome P450 2C19 = Cytochrome P450 2C19 (Homo sapiens, UniProt P33261); assay: Cytochrome panel assay with activity outcomes. Panel member name: p450-cyp2c19 Compounds with AC50 equal or less than 10 uM are considered active; assay type: functional; settings: read-out: AC50
Cytochrome P450 2D6 [19] = target: T3, Cytochrome P450 2D6
[20] = target: Voltage-gated inwardly rectifying potassium channel KCNH2 (Homo sapiens, UniProt Q12809); settings: Potency;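 note: confirmatory quantitative high-throughput screen measuring inhibition of hERG channel activity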
Voltage-gated inwardly rectifying potassium channel KCNH2, sequence (Q12809 whole entry): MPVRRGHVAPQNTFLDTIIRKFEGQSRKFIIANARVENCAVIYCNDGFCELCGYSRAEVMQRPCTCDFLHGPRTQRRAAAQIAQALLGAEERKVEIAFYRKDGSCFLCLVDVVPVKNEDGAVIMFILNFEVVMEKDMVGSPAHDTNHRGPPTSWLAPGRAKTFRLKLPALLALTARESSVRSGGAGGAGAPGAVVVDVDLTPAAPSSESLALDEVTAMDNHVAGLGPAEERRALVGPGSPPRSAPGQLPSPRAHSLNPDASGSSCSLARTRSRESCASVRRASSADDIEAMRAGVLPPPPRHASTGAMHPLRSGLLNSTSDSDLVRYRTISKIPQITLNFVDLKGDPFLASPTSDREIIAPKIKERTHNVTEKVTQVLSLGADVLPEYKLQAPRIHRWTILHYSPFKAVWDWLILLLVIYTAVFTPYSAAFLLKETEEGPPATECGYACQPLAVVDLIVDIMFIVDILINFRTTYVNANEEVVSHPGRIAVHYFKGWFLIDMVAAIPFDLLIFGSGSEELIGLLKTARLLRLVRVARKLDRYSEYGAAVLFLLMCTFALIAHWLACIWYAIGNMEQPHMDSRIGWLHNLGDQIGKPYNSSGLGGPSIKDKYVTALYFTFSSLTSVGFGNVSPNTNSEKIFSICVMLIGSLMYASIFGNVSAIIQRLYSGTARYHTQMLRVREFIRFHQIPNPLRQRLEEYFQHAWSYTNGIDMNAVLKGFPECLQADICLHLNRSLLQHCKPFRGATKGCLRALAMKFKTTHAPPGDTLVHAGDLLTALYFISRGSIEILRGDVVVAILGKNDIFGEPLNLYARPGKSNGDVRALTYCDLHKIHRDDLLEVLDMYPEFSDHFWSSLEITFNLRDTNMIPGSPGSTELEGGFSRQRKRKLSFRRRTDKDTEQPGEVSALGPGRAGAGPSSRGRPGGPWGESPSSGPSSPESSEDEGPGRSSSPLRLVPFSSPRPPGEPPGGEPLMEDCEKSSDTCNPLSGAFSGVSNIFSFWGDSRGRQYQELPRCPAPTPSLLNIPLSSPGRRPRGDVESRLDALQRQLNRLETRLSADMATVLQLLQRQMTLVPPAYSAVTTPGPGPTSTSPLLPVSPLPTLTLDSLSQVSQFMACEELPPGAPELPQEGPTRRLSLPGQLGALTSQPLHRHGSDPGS

T3 sequence (P10635 whole entry): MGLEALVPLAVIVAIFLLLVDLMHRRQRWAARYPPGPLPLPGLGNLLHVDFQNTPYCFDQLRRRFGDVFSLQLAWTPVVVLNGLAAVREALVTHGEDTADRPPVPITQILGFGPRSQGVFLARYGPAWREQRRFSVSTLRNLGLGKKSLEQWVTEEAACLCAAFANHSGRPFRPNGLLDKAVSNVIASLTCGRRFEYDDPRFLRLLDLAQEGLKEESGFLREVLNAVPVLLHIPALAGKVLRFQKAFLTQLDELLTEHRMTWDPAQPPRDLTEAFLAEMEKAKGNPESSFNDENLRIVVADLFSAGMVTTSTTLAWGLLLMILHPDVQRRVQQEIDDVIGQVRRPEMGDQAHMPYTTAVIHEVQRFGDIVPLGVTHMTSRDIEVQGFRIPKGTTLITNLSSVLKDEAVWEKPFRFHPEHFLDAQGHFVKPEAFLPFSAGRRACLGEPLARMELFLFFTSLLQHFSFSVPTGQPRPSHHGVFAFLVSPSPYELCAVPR
Oxytocin receptor, sequence (P30559 whole entry): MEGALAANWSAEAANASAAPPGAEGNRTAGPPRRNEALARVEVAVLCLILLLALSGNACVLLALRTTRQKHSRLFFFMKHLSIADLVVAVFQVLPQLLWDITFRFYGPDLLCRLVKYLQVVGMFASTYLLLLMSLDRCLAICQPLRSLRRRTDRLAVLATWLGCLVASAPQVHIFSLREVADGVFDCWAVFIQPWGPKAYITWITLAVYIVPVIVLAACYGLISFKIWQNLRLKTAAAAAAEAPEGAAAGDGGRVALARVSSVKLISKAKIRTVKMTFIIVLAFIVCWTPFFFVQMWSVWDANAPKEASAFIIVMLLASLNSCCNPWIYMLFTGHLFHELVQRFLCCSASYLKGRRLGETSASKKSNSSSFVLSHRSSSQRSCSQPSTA
Serine/threonine-protein phosphatase, sequence (Q9BPW0 whole entry): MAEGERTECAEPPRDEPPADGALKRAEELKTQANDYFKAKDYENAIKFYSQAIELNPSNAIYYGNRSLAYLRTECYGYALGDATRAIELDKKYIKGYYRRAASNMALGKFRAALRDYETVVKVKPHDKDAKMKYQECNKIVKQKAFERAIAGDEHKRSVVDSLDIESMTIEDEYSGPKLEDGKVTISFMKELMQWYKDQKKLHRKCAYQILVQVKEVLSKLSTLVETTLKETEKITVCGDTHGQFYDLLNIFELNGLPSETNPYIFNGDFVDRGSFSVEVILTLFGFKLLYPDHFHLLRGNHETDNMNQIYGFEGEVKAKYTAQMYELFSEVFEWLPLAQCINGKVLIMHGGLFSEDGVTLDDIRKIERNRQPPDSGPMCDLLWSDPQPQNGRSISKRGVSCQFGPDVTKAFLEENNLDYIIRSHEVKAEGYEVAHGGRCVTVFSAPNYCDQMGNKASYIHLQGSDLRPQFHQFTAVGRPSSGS
Sphingosine 1-phosphate receptor 1, sequence (P21453 whole entry): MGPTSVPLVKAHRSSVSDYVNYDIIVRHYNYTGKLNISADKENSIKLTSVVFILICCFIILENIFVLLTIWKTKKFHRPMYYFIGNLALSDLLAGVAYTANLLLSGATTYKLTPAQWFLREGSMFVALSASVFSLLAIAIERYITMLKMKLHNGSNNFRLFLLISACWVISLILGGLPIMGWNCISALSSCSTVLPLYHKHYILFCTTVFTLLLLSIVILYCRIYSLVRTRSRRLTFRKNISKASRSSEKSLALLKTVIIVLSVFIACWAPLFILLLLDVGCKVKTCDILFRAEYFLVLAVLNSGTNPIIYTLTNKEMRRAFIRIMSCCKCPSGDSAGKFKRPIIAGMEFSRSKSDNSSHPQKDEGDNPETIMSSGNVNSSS
Serine/threonine-protein phosphatase PP1-alpha catalytic subunit, sequence (P62136 whole entry): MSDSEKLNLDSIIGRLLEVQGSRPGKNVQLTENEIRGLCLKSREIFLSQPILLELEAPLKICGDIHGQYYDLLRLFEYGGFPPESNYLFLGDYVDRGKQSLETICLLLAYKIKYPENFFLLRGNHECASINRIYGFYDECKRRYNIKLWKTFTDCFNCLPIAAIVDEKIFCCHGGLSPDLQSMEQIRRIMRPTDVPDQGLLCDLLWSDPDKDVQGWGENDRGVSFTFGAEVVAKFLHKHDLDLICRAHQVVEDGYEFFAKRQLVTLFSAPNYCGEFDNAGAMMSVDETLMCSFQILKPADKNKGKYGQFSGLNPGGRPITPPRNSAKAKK
Cytochrome P450 2C19, sequence (P33261 whole entry): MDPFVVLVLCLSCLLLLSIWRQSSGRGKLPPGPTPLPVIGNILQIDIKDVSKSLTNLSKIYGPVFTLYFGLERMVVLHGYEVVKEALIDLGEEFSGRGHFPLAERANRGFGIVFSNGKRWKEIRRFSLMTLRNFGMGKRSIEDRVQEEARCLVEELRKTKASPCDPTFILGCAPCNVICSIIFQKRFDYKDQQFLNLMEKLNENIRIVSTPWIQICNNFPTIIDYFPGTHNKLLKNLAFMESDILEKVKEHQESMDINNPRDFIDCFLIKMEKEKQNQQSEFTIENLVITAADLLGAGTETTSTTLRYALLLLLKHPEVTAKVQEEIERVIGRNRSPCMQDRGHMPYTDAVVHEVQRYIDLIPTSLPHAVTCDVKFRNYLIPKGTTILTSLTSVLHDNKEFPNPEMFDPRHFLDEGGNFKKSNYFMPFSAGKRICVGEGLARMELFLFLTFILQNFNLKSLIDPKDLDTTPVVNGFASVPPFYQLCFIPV
Vasopressin V1a receptor, sequence (P37288 whole entry): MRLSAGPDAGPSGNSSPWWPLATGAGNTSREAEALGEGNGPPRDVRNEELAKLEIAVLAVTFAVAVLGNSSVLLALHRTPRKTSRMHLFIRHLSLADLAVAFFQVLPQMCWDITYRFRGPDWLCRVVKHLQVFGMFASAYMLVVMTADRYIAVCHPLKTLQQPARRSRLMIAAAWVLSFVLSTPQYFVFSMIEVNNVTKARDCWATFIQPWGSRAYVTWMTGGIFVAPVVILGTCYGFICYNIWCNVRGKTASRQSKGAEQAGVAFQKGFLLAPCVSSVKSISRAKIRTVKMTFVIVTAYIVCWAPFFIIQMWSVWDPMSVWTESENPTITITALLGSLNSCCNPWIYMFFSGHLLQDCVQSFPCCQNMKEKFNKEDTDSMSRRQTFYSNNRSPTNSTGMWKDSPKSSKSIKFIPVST

Cc1ccc(S(=O)(=O)Nc2cccc3ncccc23)s1
EC50 [1]: 1.78 µM (active) | EC50 [2]: 11.3 µM (active) | CC50 [3]: 6.47 µM (active) | EC50 [4]: 10.3 µM (active) | EC50 [5]: 1.73 µM (active) | EC50 [6]: 1.46 µM (active) | IC50 [7]: 0.611 µM (active) | IC50 [8]: 1.19 µM (active) | EC50 (Streptococcus): 10.1 µM (active) | CC50 [9]: 6.44 µM (active) | CC50 [10]: 6.97 µM (active) | CC50 [11]: 4.2 µM (active) | EC50 [12]: 3.91 µM (active) | IC50 (cells): 2.01 µM (active) | AC50 [13]: 3.85 µM (active) | AC50 [14]: 9.75 µM (active)

CCOC(=O)/C(C#N)=C/C=C1/C=CC=CN1C
EC50 [15]: > 100 µM (active)

Cc1ccc(-n2nc(C(=O)O)cc2-c2ccc(Cl)cc2)cc1
IC50 [16]: 9.65 µM (active) | IC50 [17]: > 67 µM (not active)

CC(Oc1ccc(F)cc1)C(=O)Nc1ccc(S(=O)(=O)NC2=NCCCCC2)cc1 (stereo not given)
EC50 (Vasopressin V1a receptor): > 29.9 µM (not active) | EC50 (Oxytocin receptor): > 29.9 µM (not active)

O=C(CCc1ccc(O)cc1)c1c(O)cc(O)cc1O [PHLORETIN]
AC50 (Cytochrome P450 2D6 [18]): 25.1 µM (inconclusive) | AC50 (Cytochrome P450 2C19): 20 µM (inconclusive) | AC50 (Cytochrome P450 2D6 [19]): 39.8 µM (inconclusive) | AC50 [20]: 12.6 µM (inconclusive)
